Measurements as given in patent US20080021004A1, “Sapogenin derivatives and their use in the treatment of cognitive dysfunction” (PHYTOPHARM PLC, priority 1999, published 2008).

Tested on: m2 receptors on CHO cells
Assay: Expression of m2 receptors on transfected CHO cells (tritiated QNB binding)
Assay type: cell-based, human
Conditions: DMSO control
Excerpt: Sapogenin derivatives of the present invention have also been tested for activity in a number of in-vitro assays. The assays/experiments that were considered of key importance in determining possible activity in the elevation of membrane bound receptor numbers were as follows: • Chinese hamster ovary (CHO) cells transfected with the DNA fragment coding for a muscarinic receptor. The cell line used for the majority of the experiments was a cell line expressing the m2 receptor.
The effects of various compounds on the expression of m2 receptors on CHO cells transfected with DNA for the m2 receptor were investigated. Receptor numbers were assayed using tritiated QNB binding and subtracting non-specific binding. Compounds were dissolved in DMSO and DMSO was used as a control. Compounds were tested at a range of final concentrations. Compounds were also tested in the presence and absence of tamoxifen to try to distinguish an oestrogen receptor mediated mechanism.
Compounds are active when the effect on receptor expression given as a percentage increase compared to control is more than 15%.

Structure (SMILES) | Activity (effect on expression of m2 receptors, percentage increase compared to control) (molar concentration 10^−5) | Activity (effect on expression of m2 receptors, percentage increase compared to control) (molar concentration 10^−6)
CC1CCC2(OC1)OC1CC3C4CC=C5CC(O)C[C@@H](O)[C@]5(C)C4CC[C@]3(C)C1C2C (stereo partly shown) | Not Active Not Active | Not Active Not Active
CC1CCC2(OC1)OC1CC3C4CC[C@H]5CC(O)CC[C@]5(C)C4CC[C@]3(C)C1C2C (stereo partly shown) | Not Active Not Active | Not Active Not Active
CC1CCC2(OC1)OC1CC3C4CC[C@@H]5CC(O)[C@H](O)C[C@]5(C)C4CC[C@]3(C)C1C2C (stereo partly shown) | Not Active | 
CC1C(=O)OC2CC3C4CC[C@H]5CC(O)CC[C@]5(C)C4CC[C@]3(C)C21 (stereo partly shown) | Not Active | 
CC(CO)CCCC(C)C1C(O)CC2C3CC[C@H]4CC(O)CC[C@]4(C)C3CC[C@@]21C (stereo partly shown) | Active | 
CC1CCC2(OC1)OC1CC3C4CC=C5CC(O)CC[C@]5(C)C4CC[C@]3(C)C1C2C (stereo partly shown) | Not Active Not Active | Not Active Not Active
CC1CCC2(OC1)OC1CC3C4CC[C@@H]5CC(O)CC[C@]5(C)C4C(=O)C[C@]3(C)C1C2C (stereo partly shown) | Not Active | 
